Experimental data taken from patent US20230064324A1, “NEW USES FOR STEVIOL” (SUNTORY HOLDINGS LIMITED, priority 2019, published 2023).

Tests used:
PC12 cells (clone HS) = experiment: Neurite elongation-promoting effect on PC12 cells (neurite length per cell, Operetta CLS); assay type: cell-based, Rat; conditions: for Relative neurite length (%): 3 days, negative control=100%
Experimental: PC12 cells (clone HS) were precultured using a growth medium in the same manner as in Example 1. […] The cells thus cultured were subjected to cell membrane staining using Cell Membrane Stain attached to Neurite Outgrowth Staining Kit (Thermo Fisher Scientific Inc.) and nuclear staining using Hoechst 33342 (Cat. No. H3570). Specifically, the medium was replaced with 100 μL of a fixative and staining solution (prepared by adding a 1/1000 amount each of Cell Membrane Stain (1000×) and Hoechst 33342 and a 1/25 amount of a formaldehyde solution (Cat. No. 061-00416, FUJIFILM Wako Pure Chemical Corp.) to DPBS (++) (Cat. No. 14040133, Thermo Fisher Scientific Inc.)), followed by incubation for 20 minutes in a CO2 incubator (5% CO2, 37° C., humid). […] Photographing and quantitative analysis were carried out using Operetta CLS (Perkin Elmer, Inc.), and a neurite length per cell was calculated. Nine fields of view at the center of each well were photographed using a 10× objective lens. A test medium supplemented with 50 ng/mL NGF was used as a positive control, and a vehicle control composed of a differentiation medium supplemented with 0.1% DMSO (final concentration) was used as a negative control.

CHOP [1] = experiment: CHOP expression in adipocytes under endoplasmic reticulum stress (RT-PCR); assay type: cell-based, Human; conditions: pretreatment 24 h, tunicamycin 0.65 μM 24 h
Experimental: (§1) Adipocytes were prepared as follows. Normal human subcutaneous preadipocytes were reconstituted in a T75 flask using a growth medium (PBM-2 medium, Cat. No. PT-8002, Lonza, supplemented with 10% FBS, 2 mM L-glutamine, 50 μg/mL gentamycin, and 37 ng/mL amphotericin-B), and precultured for 3 days in a CO2 incubator (37° C., 5% CO2; the same holds true for the description below).
(§2) The lysate was preserved at −80° C. until use.
(§3) The internal standard gene used was GAPDH gene.

GRP78 [2] = experiment: GRP78 expression in pancreatic cells (βTC6) under endoplasmic reticulum stress (RT-PCR); assay type: cell-based, Mouse; conditions: pretreatment 4 h, tunicamycin 0.16 μM 24 h
Experimental: as §2, §3

GRP78 [3] = experiment: GRP78 expression in neuronal cells under endoplasmic reticulum stress (RT-PCR); assay type: cell-based, Rat; conditions: pretreatment 24 h, tunicamycin 1.0 μM 24 h
Experimental: Neuronal cells were prepared as follows. PC12 cells were reconstituted by seeding at 2×10^6 cells/flask to a collagen IV-coated flask, and precultured for 3 days in the growth medium in a CO2 incubator.
as §2, §3

[4] = system: endoplasmic reticulum stress markers CHOP and GRP78; experiment: Endoplasmic reticulum stress-suppressing effect in each type of cell (markers CHOP and GRP78), overall statement; assay type: cell-based; conditions: neuronal cells, adipocytes, hepatocytes, pancreatic cells; tunicamycin-induced; CHOP and GRP78 as index
Experimental: Steviol was evaluated for its influence on endoplasmic reticulum stress in each type of cell by using endoplasmic reticulum stress markers CHOP and GRP78 as an index. The test cells used were neuronal cells (induced from PC12 cells), adipocytes (normal human subcutaneous preadipocytes, Cat. No. PT-5020, Lonza Group AG), hepatocytes (HepG2, Cat. No. JCRB1054, JCRB) and pancreatic cells (βTC6, ATCC® CRL-11506).
4PA (P21005, Sigma-Aldrich Co., LLC) was dissolved in a medium and then added at a predetermined concentration to a differentiation medium or a growth medium.
After the completion of endoplasmic reticulum stress induction treatment, the expression levels of CHOP and GRP78 were measured to evaluate the degree of endoplasmic reticulum stress. First, FasteLane lysate (RNA) was prepared for RNA extraction using FastLane Cell Probe kit (Cat. No. 216413, Qiagen N.V.). After removal of the medium, each well was washed by the addition of 125 μL of Buffer FCW and its immediate removal. Then, 50 μL of Cell processing mix was added to each well, followed by incubation at room temperature for 5 minutes to prepare FasteLane lysate. […]
RT-PCR reaction was performed under conditions of 50° C. for 30 minutes, 95° C. for 15 minutes, and (94° C. for 15 seconds and 60° C. for 60 seconds)×40 cycles. […] A relative expression level was calculated by the ΔΔCt method. […]

CHOP [5] = experiment: CHOP expression in pancreatic cells (βTC6) under endoplasmic reticulum stress (RT-PCR); assay type: cell-based, Mouse; conditions: pretreatment 4 h, tunicamycin 0.16 μM 24 h
Experimental: as §2, §3

[6] = system: neuronal cells (induced from PC12 cells); experiment: Cytotoxicity of steviol to neuronal cells (differentiated PC12, WST-8); assay type: cell-based, Rat; conditions: for Relative viable cell count (%): 2 days, differentiated PC12, Control=100%
Source text: PC12 cells (Cat. No. 88022401, ECACC) were precultured in a collagen IV-coated flask using the growth medium. […] A vehicle control composed of a test medium supplemented with 0.1% DMSO (final concentration) was used as a negative control.

[7] = system: neuronal cells (induced from PC12 cells); experiment: Cell-protecting effect against tunicamycin-induced endoplasmic reticulum stress (WST-8); conditions: 1 μM tunicamycin
Experimental: PC12 cells were precultured using the growth medium in a same manner as Example 3. The cells were detached using 0.25% trypsin-EDTA, seeded at 5,000 cells/100 μL/well to a collagen IV-coated 96-well plate (Cat. No. 354429, Corning) using the growth medium, and cultured overnight in a CO2 incubator. On the next day, the medium was replaced with 100 μL of the differentiation medium, and the cells were cultured for 2 days in a CO2 incubator to induce their differentiation into neuronal cells. […] IGF-1 (Cat. No. SRP4121, Sigma-Aldrich Co., LLC) was dissolved at 100 μg/mL in Nuclease Free Water and then added at 100 ng/mL to the differentiation medium.
After the completion of endoplasmic reticulum stress induction treatment, viable cell count measurement was performed by the WST-8 method to evaluate damage on the cells by endoplasmic reticulum stress. Specifically, the medium of each well after culture was replaced with 200 μL of a differentiation medium supplemented with a 1/10 amount of viable cell count measurement reagent SF, and the cells were incubated in a CO2 incubator. 30 minutes later and 90 minutes later, absorbance (450 nm, reference wavelength: 630 nm) was measured using a plate reader (VARIOSKAN FLASH, Thermo Fisher Scientific Inc.), and absorbance difference per 60 minutes was regarded as a relative viable cell count.

GRP78 [8] = experiment: GRP78 expression in adipocytes under endoplasmic reticulum stress (RT-PCR); assay type: cell-based, Human; conditions: pretreatment 24 h, tunicamycin 0.65 μM 24 h
Experimental: as §1, §2, §3

With `C=C1C[C@@]23CC[C@H]4[C@@](C)(CCC[C@@]4(C)C(=O)O)[C@@H]2CC[C@]1(O)C3` [Steviol] the “neurite elongation (in words)” value (PC12 cells (clone HS); PC12 cells, varying concentrations of steviol) was “promoted neurite elongation in a concentration-dependent manner”, the “Relative neurite length (%)” value (PC12 cells (clone HS); steviol 12.5 μg/mL) was 133.3% and the “Relative neurite length (%)” value (PC12 cells (clone HS); steviol 25 μg/mL) was 180.9%. The “Relative neurite length (%)” value (PC12 cells (clone HS); steviol 50 μg/mL) was 235.2%, the “Relative neurite length (%)” value (PC12 cells (clone HS); steviol 100 μg/mL) was 307.7% and the “Relative neurite length (%)” value (PC12 cells (clone HS); steviol 200 μg/mL) was 308.6%. For the same compound, the “Expression level of CHOP in adipocytes (relative to GAPDH, untreated=1)” value (CHOP [1]; steviol 6.25 μg/mL) was 3.49, the “Expression level of CHOP in adipocytes (relative to GAPDH, untreated=1)” value (CHOP [1]; steviol 12.5 μg/mL) was 3.23 and the “Expression level of CHOP in adipocytes (relative to GAPDH, untreated=1)” value (CHOP [1]; steviol 25 μg/mL) was 3.15. The “Expression level of CHOP in adipocytes (relative to GAPDH, untreated=1)” value (CHOP [1]; steviol 50 μg/mL) was 3.17, the “Expression level of GRP78 in pancreatic cells (relative to GAPDH, untreated=1)” value (GRP78 [2]; steviol 6.25 μg/mL) was 2.10 and the “Expression level of GRP78 in pancreatic cells (relative to GAPDH, untreated=1)” value (GRP78 [2]; steviol 12.5 μg/mL) was 2.03. The “Expression level of GRP78 in pancreatic cells (relative to GAPDH, untreated=1)” value (GRP78 [2]; steviol 25 μg/mL) was 1.80, the “Expression level of GRP78 in pancreatic cells (relative to GAPDH, untreated=1)” value (GRP78 [2]; steviol 50 μg/mL) was 1.66 and the “Expression level of GRP78 in neuronal cells (relative to GAPDH, untreated=1)” value (GRP78 [3]; steviol 6.25 μg/mL) was 23.31. For the same compound, the “Expression level of GRP78 in neuronal cells (relative to GAPDH, untreated=1)” value (GRP78 [3]; steviol 12.5 μg/mL) was 23.00, the “Expression level of GRP78 in neuronal cells (relative to GAPDH, untreated=1)” value (GRP78 [3]; steviol 25 μg/mL) was 21.84 and the “Expression level of GRP78 in neuronal cells (relative to GAPDH, untreated=1)” value (GRP78 [3]; steviol 50 μg/mL) was 20.15. The “endoplasmic reticulum stress (in words)” value [4] was “suppressed endoplasmic reticulum stress in each type of cell in a concentration-dependent manner”, the “Expression level of CHOP in pancreatic cells (relative to GAPDH, untreated=1)” value (CHOP [5]; steviol 6.25 μg/mL) was 2.56 and the “Expression level of CHOP in pancreatic cells (relative to GAPDH, untreated=1)” value (CHOP [5]; steviol 12.5 μg/mL) was 2.46. The “Expression level of CHOP in pancreatic cells (relative to GAPDH, untreated=1)” value (CHOP [5]; steviol 25 μg/mL) was 2.21, the “Expression level of CHOP in pancreatic cells (relative to GAPDH, untreated=1)” value (CHOP [5]; steviol 50 μg/mL) was 2.25 and the “cytotoxicity to neuronal cells (in words)” value ([6]; 100 μg/mL steviol) was “no particular cytotoxicity to be noted was found”. For the same compound, the “Relative viable cell count (%)” value ([6]; steviol 0.01 μg/mL) was 97.7%, the “Relative viable cell count (%)” value ([6]; steviol 0.1 μg/mL) was 104.4% and the “Relative viable cell count (%)” value ([6]; steviol 1 μg/mL) was 93.6%. For the same compound, the “Relative viable cell count (%)” value ([6]; steviol 10 μg/mL) was 91.4%, the “Relative viable cell count (%)” value ([6]; steviol 100 μg/mL) was 95.1% and the “adverse effect of endoplasmic reticulum stress on cells (in words)” value [7] was “suppressed an adverse effect of endoplasmic reticulum stress on cells in a concentration-dependent manner”. The “Expression level of GRP78 in adipocytes (relative to GAPDH, untreated=1)” value (GRP78 [8]; steviol 6.25 μg/mL) was 4.46, the “Expression level of GRP78 in adipocytes (relative to GAPDH, untreated=1)” value (GRP78 [8]; steviol 12.5 μg/mL) was 4.18 and the “Expression level of GRP78 in adipocytes (relative to GAPDH, untreated=1)” value (GRP78 [8]; steviol 25 μg/mL) was 4.06. The “Expression level of GRP78 in adipocytes (relative to GAPDH, untreated=1)” value (GRP78 [8]; steviol 50 μg/mL) was 3.54.
